Each structure is given as a SMILES string.

For orientation: AC50 means the midpoint of the concentration-response curve, whichever way the signal moves.

This assay concerns the target T1, human PAH with the R408W mutation (Homo sapiens, UniProt P00439, R408W).
T1 construct: expressed in transfected cells
T1 sequence (P00439 1-452 R408W): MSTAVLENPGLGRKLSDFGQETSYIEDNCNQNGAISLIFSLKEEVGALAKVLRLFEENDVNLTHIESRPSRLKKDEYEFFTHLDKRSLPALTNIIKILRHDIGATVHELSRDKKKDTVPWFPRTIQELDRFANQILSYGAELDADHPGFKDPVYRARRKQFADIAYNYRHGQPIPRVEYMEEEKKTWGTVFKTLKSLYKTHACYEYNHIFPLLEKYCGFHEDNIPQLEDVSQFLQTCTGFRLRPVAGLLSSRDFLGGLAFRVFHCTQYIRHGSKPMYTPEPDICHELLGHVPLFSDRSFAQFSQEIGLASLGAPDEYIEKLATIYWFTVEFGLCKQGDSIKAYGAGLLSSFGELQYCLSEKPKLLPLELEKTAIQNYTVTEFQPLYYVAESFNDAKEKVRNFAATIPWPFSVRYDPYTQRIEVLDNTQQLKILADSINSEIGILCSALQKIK
In words: Cell Based Phenylalanine Flux Assay.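 Further: Ten-point dose curve from 2-fold serial dilutions, run in duplicate at 0.5% DMSO final, tracer step used 20 µM sepiapterin and 800 µM labeled phenylalanine.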 To be noted: A375 cells expressing human R408W PAH; 24 hrs with compound, then sepiapterin and 13C9,15N-Phenylalanine for 4 hours; 13C-Tyrosine by LC-MS; average where tested multiple times; read-out: AC50.
Procedure: Compounds were resuspended in DMSO, and 2-fold serial dilutions were performed to generate a 10-point dose curve. Compounds were added to plated cells in a total volume of 100 μl, and a final DMSO concentration of 0.5%. Each compound was tested in duplicate. Following compound addition, cells were placed in a 5% CO2, 37° C. tissue culture incubator for 24 hrs. […] 20 μM sepiapterin and 800 μM 13C9,15N-Phenylalanine were added. After 4 hours, cell media was removed. An aliquot of 10 μl of cell media was combined with 200 μl of extraction buffer (80% acetonitrile/20% H2O) for each well. Determination of ^13C-Tyrosine concentration was assessed by liquid chromatography mass spectrometry.
Where a compound was tested multiple times, the average value of the tests is reported.
In the case of `FC(F)c1cccn2nc([C@H]3c4nc[nH]c4CCN3c3nnc(C(F)(F)F)o3)cc12` [Example 1766, (R)-2-(4-(4-(difluoromethyl)pyrazolo[1,5-a]pyridin-2-yl)-6,7-dihydro-1H-imidazo [4,5-c]pyridin-5(4H)-yl)-5-(trifluoromethyl)-1,3,4-oxadiazole], the concentration at half-maximal activity (AC50) lay within 500 to 1000 nM.
As for `CN(C)c1ccc2c(C(=O)N3CCc4[nH]cnc4[C@H]3c3cc4c(F)cccn4n3)cnn2c1` [Example 1772, (S)-(6-(dimethylamino)pyrazolo[1,5-a]pyridin-3-yl)(4-(4-fluoropyrazolo[1,5-a]pyridin-2-yl)-6,7-dihydro-1H-imidazo[4,5-c]pyridin-5(4H)-yl)methanone], the figure is 500 to 1000 nM.
Regarding `Fc1cccn2nc([C@@H]3c4nc[nH]c4CCN3c3ncc(C(F)(F)F)cn3)cc12` [Example 1778, (S)-4-(4-fluoropyrazolo [1,5-a]pyridin-2-yl)-5-(5-(trifluoromethyl)pyrimidin-2-yl)-4,5,6,7-tetrahydro-1H-imidazo[4,5-c]pyridine], the AC50 was below 500 nM.
The result for `Cc1cccc2cc([C@@H]3c4nc[nH]c4CCN3c3ncc(C(F)(F)F)cn3)nn12` [Example 1802, (S)-4-(7-methylpyrazolo [1,5-a]pyridin-2-yl)-5-(5-(trifluoromethyl)pyrimidin-2-yl)-4,5,6,7-tetrahydro-1H-imidazo[4,5-c]pyridine] reads 500 to 1000 nM; that for `Fc1cccn2nc([C@H]3c4nc[nH]c4CCN3c3nnc(C(F)(F)F)o3)cc12` [Example 1822, (R)-2-(4-(4-fluoropyrazolo [1,5-a]pyridin-2-yl)-6,7-dihydro-1H-imidazo [4,5-c]pyridin-5(4H)-yl)-5-(trifluoromethyl)-1,3,4-oxadiazole], above 5000 nM.
On to `Fc1cccn2nc([C@@H]3c4nc[nH]c4CCN3c3nnc(C(F)(F)F)o3)cc12` [Example 1823], for which the AC50 fell in the range of 500 to 1000 nM.
Regarding `O=C(c1nnc(-c2cnccn2)o1)N1CCc2[nH]cnc2[C@H]1c1cc2c(C3CC3)cccn2n1` [Example 1857, (S)-(4-(4-cyclopropylpyrazolo [1,5-a]pyridin-2-yl)-1,4,6,7-tetrahydro-5H-imidazo[4,5-c]pyridin-5-yl)(5-(pyrazin-2-yl)-1,3,4-oxadiazol-2-yl)methanone], the AC50 is 500 to 1000 nM.
Turning to `Fc1cccc(F)c1-c1nnc(N2CCc3[nH]cnc3[C@H]2c2cc3c(F)cccn3n2)o1` [Example 1865, (S)-2-(2,6-difluorophenyl)-5-(4-(4-fluoropyrazolo[1,5-a]pyridin-2-yl)-1,4,6,7-tetrahydro-5H-imidazo[4,5-c]pyridin-5-yl)-1,3,4-oxadiazole], the half-maximal activity concentration (AC50) is below 500 nM.
Turning to `CC(C)(C)c1ncc(C(=O)N2CCc3[nH]cnc3[C@H]2c2cc3ccccn3n2)o1` [Example 1866, (S)-(2-(tert-butyl)oxazol-5-yl)(4-(pyrazolo[1,5-a]pyridin-2-yl)-1,4,6,7-tetrahydro-5H-imidazo[4,5-c]pyridin-5-yl)methanone], the AC50 was below 500 nM.
As for `Cn1ccc(-c2nnc(C(=O)N3CCc4[nH]cnc4[C@@H]3c3cc4c(Br)cccn4n3)o2)n1` [Example 1888, (R)-(4-(4-bromopyrazolo [1,5-a]pyridin-2-yl)-1,4,6,7-tetrahydro-5H-imidazo[4,5-c]pyridin-5-yl)(5-(1-methyl-1H-pyrazol-3-yl)-1,3,4-oxadiazol-2-yl)methanone], the figure is above 5000 nM; as for `CCc1cccn2nc([C@@H]3c4nc[nH]c4CCN3C(=O)c3nnc(-c4ccccn4)o3)cc12` [Example 1895, (S)-(4-(4-ethylpyrazolo[1,5-a]pyridin-2-yl)-1,4,6,7-tetrahydro-5H-imidazo[4,5-c]pyridin-5-yl)(5-(pyridin-2-yl)-1,3,4-oxadiazol-2-yl) methanone], below 500 nM; as for `O=C(c1nnc(-c2ccccn2)o1)N1CCc2[nH]cnc2[C@H]1c1cc2c(C3CC3)cccn2n1` [Example 1897, (S)-(4-(4-cyclopropylpyrazolo [1,5-a]pyridin-2-yl)-1,4,6,7-tetrahydro-5H-imidazo [4,5-c]pyridin-5-yl)(5-(pyridin-2-yl)-1,3,4-oxadiazol-2-yl)methanone], 500 to 1000 nM.
Consider `Cn1ccc(-c2nnc(C(=O)N3CCc4[nH]cnc4[C@@H]3c3cc4c(C5CC5)cccn4n3)o2)n1` [Example 1901], for which the concentration at half-maximal activity (AC50) was above 5000 nM.
With `CC(C)c1cccn2nc([C@@H]3c4nc[nH]c4CCN3C(=O)c3nnc(-c4ncccc4F)o3)cc12` [Example 1906, (S)-(5-(3-fluoropyridin-2-yl)-1,3,4-oxadiazol-2-yl)(4-(4-isopropylpyrazolo[1,5-a]pyridin-2-yl)-1,4,6,7-tetrahydro-5H-imidazo[4,5-c]pyridin-5-yl)methanone], the AC50 is below 500 nM.
Turning to `O=C(c1nnc(C2CC2)o1)N1CCc2[nH]cnc2[C@@H]1c1cc2c(Br)cccn2n1` [Example 1909, (R)-(4-(4-bromopyrazolo [1,5-a]pyridin-2-yl)-1,4,6,7-tetrahydro-5H-imidazo [4,5-c]pyridin-5-yl)(5-cyclopropyl-1,3,4-oxadiazol-2-yl)methanone], the AC50 fell in the range of 1000 to 5000 nM.
As for `O=C(c1nnc(-c2ccccn2)o1)N1CCc2[nH]cnc2[C@@H]1c1cc2c(Br)cccn2n1` [Example 1910, (R)-(4-(4-bromopyrazolo [1,5-a]pyridin-2-yl)-1,4,6,7-tetrahydro-5H-imidazo[4,5-c]pyridin-5-yl)(5-(pyridin-2-yl)-1,3,4-oxadiazol-2-yl)methanone], the figure is above 5000 nM; as for `Fc1ccc(-c2nnc(N3CCc4[nH]cnc4[C@@H]3c3cc4c(C(F)F)cccn4n3)o2)cc1` [Example 1912, (R)-2-(4-(4-(difluoromethyl)pyrazolo[1,5-a]pyridin-2-yl)-1,4,6,7-tetrahydro-5H-imidazo[4,5-c]pyridin-5-yl)-5-(4-fluorophenyl)-1,3,4-oxadiazole], above 5000 nM.
Take `Fc1ccc(-c2nnc(N3CCc4[nH]cnc4[C@H]3c3cc4c(C(F)F)cccn4n3)o2)cc1` [Example 1913, (S)-2-(4-(4-(difluoromethyl)pyrazolo[1,5-a]pyridin-2-yl)-1,4,6,7-tetrahydro-5H-imidazo [4,5-c]pyridin-5-yl)-5-(4-fluorophenyl)-1,3,4-oxadiazole]: the AC50 was below 500 nM.
In the case of `Cc1cccn2nc([C@@H]3c4nc[nH]c4CCN3C(=O)c3cnc(C(C)(C)C)o3)cc12` [Example 1920, (S)-(2-(tert-butyl)oxazol-5-yl)(4-(4-methylpyrazolo[1,5-a]pyridin-2-yl)-1,4,6,7-tetrahydro-5H-imidazo[4,5-c]pyridin-5-yl)methanone], the AC50 was below 500 nM.
With `CCc1cccn2nc([C@H]3c4nc[nH]c4CCN3C(=O)c3nnc(C(C)(C)F)o3)cc12` [Example 1923, (R)-(4-(4-ethylpyrazolo [1,5-a]pyridin-2-yl)-1,4,6,7-tetrahydro-5H-imidazo [4,5-c]pyridin-5-yl)(5-(2-fluoropropan-2-yl)-1,3,4-oxadiazol-2-yl)methanone], the half-maximal activity concentration (AC50) was above 5000 nM.
Regarding `CCc1cccn2nc([C@@H]3c4nc[nH]c4CCN3C(=O)c3nnc(-c4cnn(C)c4)o3)cc12` [Example 1924, (S)-(4-(4-ethylpyrazolo [1,5-a]pyridin-2-yl)-1,4,6,7-tetrahydro-5H-imidazo[4,5-c]pyridin-5-yl)(5-(1-methyl-1H-pyrazol-4-yl)-1,3,4-oxadiazol-2-yl)methanone], the AC50 is below 500 nM.

For the origin of these results see patent publication US12673961B2 (Agios Pharmaceuticals, Inc., priority 2022, dated 2026).
